The structures appear in SMILES notation.

Sequence of DNA (cytosine-5)-methyltransferase 1 (Homo sapiens) (P26358 whole entry): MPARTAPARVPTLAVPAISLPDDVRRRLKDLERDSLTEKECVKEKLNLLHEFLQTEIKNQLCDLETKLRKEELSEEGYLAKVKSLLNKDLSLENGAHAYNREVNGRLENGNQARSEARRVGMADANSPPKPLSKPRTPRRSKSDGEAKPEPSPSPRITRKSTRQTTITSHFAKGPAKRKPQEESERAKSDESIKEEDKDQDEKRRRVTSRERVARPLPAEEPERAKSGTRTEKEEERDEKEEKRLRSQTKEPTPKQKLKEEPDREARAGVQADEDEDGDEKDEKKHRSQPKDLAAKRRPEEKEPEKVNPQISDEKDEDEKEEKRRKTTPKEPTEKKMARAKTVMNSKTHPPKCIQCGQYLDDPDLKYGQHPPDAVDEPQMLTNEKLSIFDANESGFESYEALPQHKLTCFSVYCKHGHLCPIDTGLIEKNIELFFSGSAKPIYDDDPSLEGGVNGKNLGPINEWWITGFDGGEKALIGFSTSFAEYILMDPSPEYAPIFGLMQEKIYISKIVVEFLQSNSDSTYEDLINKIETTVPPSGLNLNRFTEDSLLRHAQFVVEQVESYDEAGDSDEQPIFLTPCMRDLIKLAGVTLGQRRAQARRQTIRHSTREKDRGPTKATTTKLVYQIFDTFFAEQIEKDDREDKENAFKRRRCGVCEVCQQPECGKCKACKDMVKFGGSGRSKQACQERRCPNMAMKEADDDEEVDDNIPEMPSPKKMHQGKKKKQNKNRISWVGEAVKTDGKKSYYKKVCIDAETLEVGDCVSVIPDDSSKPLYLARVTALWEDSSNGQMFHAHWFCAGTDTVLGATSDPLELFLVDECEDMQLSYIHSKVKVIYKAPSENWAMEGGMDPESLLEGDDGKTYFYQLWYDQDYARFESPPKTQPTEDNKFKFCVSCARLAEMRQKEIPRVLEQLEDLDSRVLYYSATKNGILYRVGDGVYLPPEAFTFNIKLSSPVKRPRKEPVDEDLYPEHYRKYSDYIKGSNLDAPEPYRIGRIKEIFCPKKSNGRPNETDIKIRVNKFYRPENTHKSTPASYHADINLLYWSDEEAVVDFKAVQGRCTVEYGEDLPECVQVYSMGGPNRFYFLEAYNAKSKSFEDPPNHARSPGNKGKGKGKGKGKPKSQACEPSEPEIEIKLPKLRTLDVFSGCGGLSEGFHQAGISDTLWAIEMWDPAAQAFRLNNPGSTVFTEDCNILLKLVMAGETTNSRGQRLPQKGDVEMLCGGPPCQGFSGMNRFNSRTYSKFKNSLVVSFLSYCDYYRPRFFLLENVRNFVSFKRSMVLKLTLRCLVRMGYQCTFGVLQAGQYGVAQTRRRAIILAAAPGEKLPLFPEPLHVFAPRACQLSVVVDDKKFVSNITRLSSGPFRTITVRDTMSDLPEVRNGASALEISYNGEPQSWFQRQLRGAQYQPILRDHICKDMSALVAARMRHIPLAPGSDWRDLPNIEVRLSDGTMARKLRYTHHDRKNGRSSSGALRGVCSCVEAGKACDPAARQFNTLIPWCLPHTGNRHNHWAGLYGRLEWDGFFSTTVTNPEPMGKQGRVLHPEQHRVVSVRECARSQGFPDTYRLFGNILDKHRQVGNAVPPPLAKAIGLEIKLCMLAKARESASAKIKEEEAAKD

The assay has as its target DNA (cytosine-5)-methyltransferase 1 (Homo sapiens) (UniProt P26358). In words: Inhibition of DNMT1 assessed as drug level causing inhibition by SPA.
Regarding `C=C(Cl)/C(=C\Br)CCC(Br)=C(C)C`, the Activity was determined as 1.65 µM.
The figure for `C=C(Cl)/C(=C\Br)CCC(Br)C(C)(C)Cl` (centres undefined) is 55 µM; for `C=C[C@](Cl)(CBr)CC[C@@H](Br)C(C)(C)Cl` it is 21.9 µM; for `C=C(Cl)[C@](Cl)(CBr)CC[C@@H](Br)C(C)(C)Cl` it is 1.25 µM.

For the origin of these results see ChEMBL document CHEMBL1157312, “DNA methyl transferase inhibiting halogenated monoterpenes from the Madagascar red marine alga Portieria hornemannii” (J Nat Prod, 2006).
